Reference: US9102637B2, “Bicyclic thiazole compounds” (CARNA BIOSCIENCES INC., priority 2013, dated 2015)

biological target: human TNIK (N-terminal segment, TNIK_N, residues 1-314) (Homo sapiens (Human), UniProt Q9UKE5); assay: TNIK kinase assay (mobility shift); type: biochemical; conditions: TNIK_N kinase activity, 25 μM ATP, 1 h at room temperature
Excerpt: Preparation of Recombinant Human TNIK (N-Terminal Segment):
A cDNA encoding the N-terminal segment (TNIK_N, residues 1-314) containing the kinase domain of human TNIK (NM_015028.1) was amplified from cDNA mixture synthesized from human tissue (Biochain) by PCR using the following primers.
The cDNA was subcloned into baculovirus transfer vector pFastBac_GSTb that includes protease cleavage site and glutathione S-transferase purification tag (GST-tag). The plasmid was purified and the insertion of the pFastBac_GSTb-TNIK_N was confirmed by DNA sequencing. Then E. coli DH10Bac competent cells were transformed with the plasmid to prepare the recombinant bacmid according to the instructions for the Bac-to-Bac™ baculovirus expression systems (Invitrogen). The Sf9 cells were transfected with the recombinant bacmid containing pFastBac_GSTb-TNIK_N using Cellfectin Reagent (Invitrogen) in SF-9001I serum free media (Invitrogen). The viral supernatant was collected from the medium 72 h after transfection. The virus was amplified three times by infecting actively growing Sf9 or Sf21 cells in Grace's insect media (Invitrogen) supplemented with 10% FCS and an antibiotic-antimycotic reagent (Invitrogen) for 72 h at 27° C. in T-flask or roller bottles. The titer of amplified TNIK_N virus was estimated at 2.36×10^8 pfu/ml by using BacPAK™ Baculovirus Rapid Titer kit (Clontech).
Log-phase Sf21 cells (2×10^6 cells/ml) in the Grace's insect media were infected with the recombinant baculovirus at MOI of 3.0 and incubated in roller bottles (250 ml media per bottle) for 72 h at 27° C., after which, the cells were collected by centrifugation, and the cell pellet washed with cold PBS and kept at −80° C. until purification. The following purification procedures were carried out at 4° C. The frozen cells were thawed on ice and lysed in lysis buffer (50 mM Tris-HCl, pH 7.5, 150 mM NaCl, 1% Nonidet P-40, 5 mM DTT, 0.5 mM EDTA, 0.5 mM EGTA) supplemented with 1 mM phenylmethansulfonylfluoride, 2 μg/ml leupeptin, 2 μg/ml aprotinin, 1 mM NaF, 100 μM sodium orthovanadate, and 1 μM cantharidin by sonication. The suspended lysate was cleared by centrifugation at 9000g for 20 min and the supernatant was incubated for 1 h with glutathione Sepharose beads (GE Healthcare). The beads were suspended in buffer-H (50 mM Tris-HCl, pH 7.5, 1 M NaCl, 1 mM DTT, 0.5 mM EDTA, 0.5 mM EGTA and 0.05% Brij35) and washed with buffer-H followed by buffer-L (50 mM Tris-HCl, pH 7.5, 150 mM NaCl, 1 mM DTT, 0.5 mM EDTA, 0.5 mM EGTA, 0.05% Brij35) in an Econo-pack column (BIO-RAD). The bound TNIK_N was eluted with elution buffer (50 mM Tris-HCl, pH 8.0, 150 mM NaCl, 1 mM DTT, 10% glycerol, 0.5 mM EDTA, 0.5 mM EGTA and 5 mM reduced glutathione). The eluted fractions were collected and determined the protein concentration by Bradford reagent (BIO-RAD). The TNIKN fractions were pooled and desalted using 10DG column (BIORAD) equilibrated with the storage buffer (50 mM Tris-HCl, pH 7.5, 150 mM NaCl, 1 mM DTT, 10% glycerol, 0.05% Brij35). The purified TNIKN was characterized by electrophoresis using 4-20% polyacrylamide gels and matrix-assisted laser desorption/ionization reflection time-of-flight (MALDI-TOF) mass spectrometry on a Voyager-DE RP MALDI/TOF (Applied Biosystems). TNIK_N was confirmed by the molecular weight and. MASCOT Peptide Mass Fingerprint.
The kinase assays were conducted in a 20 μl volume using 384-well plates (Greiner). The reaction mixture consists of compound or vehicle (1% DMSO), 0.08 ng/μl TNIK_N, 1 μM FITC-labeled substrate peptides, including E-aminocaproic acid and 7 amino acids (described as SEQ ID NO.3 in “Kinase assay of TEST EXAMPLE 1” of WO 2010/064111(P.31)), 20 mM Hepes, pH 7.5, 0.01% Triton X-100, 5 mM MgCl2, 25 μM ATP and 2 mM DTT. As blank, TNIK N was excluded from the reaction mixture of vehicle (1% DMSO). […]

Chain of human TNIK (N-terminal segment, TNIK_N, residues 1-314) (Q9UKE5 1-314): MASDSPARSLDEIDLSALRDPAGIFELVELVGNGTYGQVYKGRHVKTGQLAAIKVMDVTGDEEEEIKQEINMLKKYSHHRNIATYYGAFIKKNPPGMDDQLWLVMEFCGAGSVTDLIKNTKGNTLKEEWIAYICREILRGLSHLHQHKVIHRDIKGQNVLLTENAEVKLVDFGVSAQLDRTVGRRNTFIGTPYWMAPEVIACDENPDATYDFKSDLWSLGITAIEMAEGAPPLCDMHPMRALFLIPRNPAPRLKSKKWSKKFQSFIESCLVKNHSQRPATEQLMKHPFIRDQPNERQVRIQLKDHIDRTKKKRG

SMILES	IC50 [nM]
NC(=O)c1nc(Nc2ccnc3ccccc23)sc1NC(=O)c1ccc(Cn2ccnc2)cc1 [Example 255, 5-{4-[(1H-imidazol-1-yl)methyl]benzamido}-2-(quinolin-4-ylamino)thiazole-4-carboxamide]	26.5
NC(=O)c1nc(Nc2ccc3ccc(F)cc3c2)sc1NC(=O)c1ccc(NCCO)cc1 [Example 124, 2-[(7-fluoronaphthalen-2-yl)amino]-5-{4-[(2-hydroxyethyl)amino]benzamido}thiazole-4-carbox-amide]	12.9
C#CC(=O)Nc1sc(Nc2ccc3ccccc3c2)nc1C(N)=O [Example 204, 2-(naphthalen-2-ylamino)-5-propiolamidothiazole-4-carboxamide]	6
NC(=O)c1nc(Nc2ccc3ccccc3c2)sc1NC(=O)c1ccc(Cc2nn[nH]n2)cc1 [Example 231, 5-{4-[(2H-tetrazol-5-yl)methyl]benzamido}-2-(naphthalen-2-ylamino)thiazole-4-carboxamide]	2.9
NC(=O)c1nc(Nc2cccc3ncccc23)sc1NC(=O)c1ccsc1 [Example 40, 2-(quinolin-5-ylamino)-5-(thiophene-3-carbox-amido)thiazole-4-carboxamide]	9.4
NC(=O)c1nc(Nc2ccc3ncccc3c2)sc1NC(=O)c1ccc(Cn2ccnc2)cc1 [Example 250, 5-{4-[(1H-imidazol-1-yl)methyl]benzamido}-2-(quinolin-6-ylamino)thiazole-4-carboxamide]	3
NC(=O)c1nc(Nc2ccc3ccccc3c2)sc1NC(=O)c1csc(Cn2ccnc2)c1 [Example 258, 5-{5-[(1H-imidazol-1-yl)methyl]thiophene-3-carboxamido}-2-(naphthalen-2-ylamino)thiazole-4-carboxamide]	8.7
CN(c1ccc2ncccc2c1)c1nc(C(N)=O)c(NC(=O)c2csc(CN3CCOCC3)c2)s1 [Example 51]	5.7
Cc1nnc(Cc2ccc(C(=O)Nc3sc(Nc4ccc5ccccc5c4)nc3C(N)=O)cc2)o1 [Example 257, 5-{4-[(5-methyl-1,3,4-oxadiazol-2-yl)methyl]benzamido}-2-(naphthalen-2-ylamino)thiazole-4-carboxamide]	6.2
COc1ccc2cc(Nc3nc(C(N)=O)c(NC(=O)c4ccc(Cn5ccnc5)cc4)s3)ccc2c1 [Example 248, 5-{4-[(1H-imidazol-1-yl)methyl]benzamido}-2-[(6-methoxynaphthalen-2-yl)amino]thiazole-4-carboxamide]	6.1
NC(=O)c1nc(Nc2ccc3ccccc3c2)sc1NC(=O)c1ccc(Cn2cnc([N+](=O)[O-])c2)cc1 [Example 239, 2-(naphthalen-2-ylamino)-5-{4-[(4-nitro-1H-imidazol-1-yl)methyl]benzamido}thiazole-4-carbox-amide]	5.9
NC(=O)c1nc(Nc2ccc3ccccc3c2)sc1NC(=O)c1ccc(CNCCO)cc1 [Example 163, 5-(4-{[(2-hydroxyethyl)amino]methyl}benzamido)-2-(naphthalen-2-ylamino)thiazole-4-carboxamide]	3.7
NC(=O)c1nc(Nc2ccc3ccccc3c2)sc1NC(=O)c1ccc(CN2C(=O)CSC2=O)cc1 [Example 252, 5-{4-[(2,4-dioxothiazolidin-3-yl)methyl]benzamido}-2-(naphthalen-2-ylamino)thiazole-4-carbox-amide]	15.9
NC(=O)c1nc(Nc2ccc3cc(CO)ccc3c2)sc1NC(=O)c1ccsc1 [Example 70, 2-{[6-(hydroxymethyl)naphthalen-2-yl]amino}-5-(thiophene-3-carboxamido)thiazole-4-carbox-amide]	5.5
NC(=O)c1nc(Nc2ccc3cc(CO)ccc3c2)sc1NC(=O)C1CC1 [Example 138, 5-(cyclopropanecarboxamido)-2-{[6-(hydroxy-methyl)naphthalen-2-yl]amino}thiazole-4-carbox-amide]	5.8

tested on: human colon cancer cell line HCT-116; assay: In vitro cell proliferation assay; type: cell-based; conditions: HCT-116 cell number, 72 hours of treatment
Protocol: In Vitro Cell Proliferation Assay
The human colon cancer cell line HCT-116 was seeded at 600 cells/well in 96 well-plate (ThermoFisher) using RPMI medium containing 2 mM L-glutamine (Invitrogen) supplemented with 10% FCS (Invitrogen) and 1% penicillin/streptomycin (Sigma) and maintained at 37° C., 5% CO2 and 100% humidity. The following day, old medium was withdrawn and the fresh medium was added. Initial numbers of cells were counted before adding compounds. Then cells were treated in duplicates with compounds (a half-logarithmic serial dilution from 10 μM). Eight untreated control wells were incubated in each plate. After 72 hours of treatment, cells were fixed with 2% paraformaldehyde, and the nucleus were stained with Hoechst 33258 (Invitrogen). The numbers of cells were counted with ArrayScan™ VTI (ThermoFisher Scientific).

SMILES	IC50 [nM]
CN1CCN(CCCCCC(=O)Nc2sc(Nc3ccc4ccccc4c3)nc2C(N)=O)CC1 [Example 91, 5-[6-(4-methylpiperazin-1-yl)hexanamido]-2-(naphthalen-2-ylamino)thiazole-4-carboxamide]	100 to 1000
NC(=O)c1nc(Nc2ccc3ccccc3c2)sc1NC(=O)c1ccc(N2CCOCC2)cc1 [Example 15, 5-(4-morpholinobenzamido)-2-(naphthalen-2-yl-amino)thiazole-4-carboxamide]	< 100
NC(=O)c1nc(Nc2ccc3ccccc3c2)sc1NC(=O)c1ccc(CN2CCNCC2)cc1 [Example 19, 2-(naphthalen-2-ylamino)-5-[4-(piperazin-1-ylmethyl)benzamido]thiazole-4-carboxamide]	100 to 1000
CN1CCN(Cc2cc(C(=O)Nc3sc(Nc4ccc5ccccc5c4)nc3C(N)=O)cs2)CC1 [Example 60, 5-{5-[(4-methylpiperazin-1-yl)methyl]thiophene-3-carboxamido}-2-(naphthalen-2-ylamino) thiazole-4-carboxamide]	< 100
NC(=O)c1nc(Nc2ccnc3ccccc23)sc1NC(=O)c1csc(CN2CCOCC2)c1 [Example 67]	1000 to 10000
Cc1ccc(C(=O)Nc2sc(Nc3ccc4ccccc4c3)nc2C(N)=O)s1 [Example 34, 5-(5-methylthiophene-2-carboxamido)-2-(naph-thalen-2-ylamino)thiazole-4-carboxamide]	< 100
NC(=O)c1nc(Nc2ccc3ccccc3c2)sc1NC(=O)c1ccc(NCCOCCO)cc1 [Example 78, 5-(4-{[2-(2-hydroxyethoxy)ethyl]amino}benz-amido)-2-(naphthalen-2-ylamino)thiazole-4-carbox-amide]	< 100
NC(=O)c1nc(Nc2ccc3ccccc3c2)sc1NC(=O)c1ccc(F)cc1 [Example 8, 5-(4-fluorobenzamido)-2-(naphthalen-2-ylamino) thiazole-4-carboxamide]	100 to 1000
COc1ccc2cc(Nc3nc(C(N)=O)c(NC(=O)c4ccsc4)s3)ccc2c1 [Example 73, 2-[(6-methoxynaphthalen-2-yl)amino]-5-(thio-phene-3-carboxamido)thiazole-4-carboxamide]	1000 to 10000
NC(=O)c1nc(Nc2cccc3ncccc23)sc1NC(=O)c1csc(CN2CCOCC2)c1 [Example 49, 5-[5-(morpholinomethyl)thiophene-3-carbox-amido]-2-(quinolin-5-ylamino)thiazole-4-carboxamide]	1000 to 10000
CN(C)Cc1ccc(C(=O)Nc2sc(Nc3ccc4ccccc4c3)nc2C(N)=O)cc1 [Example 20, 5-{4-[(dimethylamino)methyl]benzamido}-2-(naphthalen-2-ylamino)thiazole-4-carboxamide]	< 100
